Laboratory results published in PubChem BioAssay AID256 (DTP/NCI, 2004).
Values joined by “and” are separate entries in the source; they are usually repeats but may differ in a detail not shown here. Equal values may be shown once. Inconclusive results and toxic doses are left out.

System: CD2F1 mice, L1210 leukemia ip, survival T/C
Test: NCI In Vivo Anticancer Drug Screen. Data for tumor model L1210 Leukemia (intraperitoneal) in CD2F1 (CDF1) mice
Conditions: higher = longer survival
Method in brief: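 Mice carrying a transplanted tumor received test compound or vehicle alone. The value is the measurement in the treated group divided by that in the vehicle-treated control group.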

[1] = endpoint: mean survival time, dose: 100.0 mg/kg/injection, schedule: Q01DX009 (ip), vehicle: saline with Tween-80
[2] = endpoint: mean survival time, dose: 200.0 mg/kg/injection, schedule: Q01DX009 (ip), vehicle: saline with Tween-80
[3] = endpoint: mean survival time, dose: 400.0 mg/kg/injection, schedule: Q01DX009 (ip), vehicle: saline with Tween-80
[4] = endpoint: mean survival time, dose: 100.0 mg/kg/injection, schedule: Q04DX003 (ip), vehicle: saline with Tween-80
[5] = endpoint: mean survival time, dose: 200.0 mg/kg/injection, schedule: Q04DX003 (ip), vehicle: saline with Tween-80
[6] = endpoint: mean survival time, dose: 400.0 mg/kg/injection, schedule: Q04DX003 (ip), vehicle: saline with Tween-80
[7] = endpoint: mean survival time, dose: 100.0 mg/kg/injection, schedule: Q01DX001 (ip), vehicle: saline with Tween-80
[8] = endpoint: mean survival time, dose: 200.0 mg/kg/injection, schedule: Q01DX001 (ip), vehicle: saline with Tween-80
[9] = endpoint: mean survival time, dose: 400.0 mg/kg/injection, schedule: Q01DX001 (ip), vehicle: saline with Tween-80
[10] = endpoint: mean survival time, dose: 25.0 mg/kg/injection, schedule: Q04DX003 (ip), vehicle: saline with Tween-80
[11] = endpoint: mean survival time, dose: 50.0 mg/kg/injection, schedule: Q04DX003 (ip), vehicle: saline with Tween-80

With `O=C(Nc1nncs1)c1cccs1` the T/C (endpoint: mean survival time, dose: 12.5 mg/kg/injection, schedule: Q01DX009 (ip), vehicle: saline with Tween-80) was 95 % of control and 104 % of control, the T/C (endpoint: mean survival time, dose: 25.0 mg/kg/injection, schedule: Q01DX009 (ip), vehicle: saline with Tween-80) was 93 % of control and 103 % of control and the T/C (endpoint: mean survival time, dose: 50.0 mg/kg/injection, schedule: Q01DX009 (ip), vehicle: saline with Tween-80) was 93 % of control and 94 % of control. The T/C [1] was 92 % of control and 100 % of control, the T/C [2] was 118 % of control and the T/C [3] was 172 % of control.
For `CN(C)S(=O)(=O)c1ccccc1C(O)(c1ccccc1)c1ccccc1` (tested in a mixture with another compound), the T/C [4] was 92 % of control, the T/C [5] was 87 % of control and the T/C [6] was 98 % of control.
For `CN(C)CC(=O)N/N=C\c1ccc([N+](=O)[O-])s1`, the T/C (endpoint: mean survival time, dose: 50.0 mg/kg/injection, schedule: Q01DX009 (ip), vehicle: saline) was 91 % of control and the T/C (endpoint: mean survival time, dose: 100.0 mg/kg/injection, schedule: Q01DX009 (ip), vehicle: saline) was 93 % of control.
With `Cc1ccc(C2(O)c3ccccc3C(=O)N2c2ccccc2C)cc1` (stereo not drawn) the T/C [1] was 100 % of control, the T/C [4] was 104 % of control and the T/C [2] was 93 % of control. For the same compound, the T/C [5] was 104 % of control, the T/C [3] was 102 % of control and the T/C [6] was 106 % of control.
With `Cc1ccc(NC(=O)Nc2ccccc2C(F)(F)F)cc1NC(=O)Nc1ccccc1C(F)(F)F` the T/C [4] was 96 % of control, the T/C [5] was 98 % of control and the T/C [6] was 104 % of control.
`O=C(Nc1ccc(Br)c2c(NC(=O)c3ccccc3)ccc(Br)c12)c1ccccc1` was tested, and the T/C [1] was 88 % of control and 93 % of control, the T/C [2] was 97 % of control and the T/C [3] was 93 % of control.
With `O=c1oc(-c2ccc(OCc3ccccc3)c(OCc3ccccc3)c2)c2c3ccccc3ccn12` the T/C (endpoint: median survival time, dose: 25.0 mg/kg/injection, schedule: Q04DX003 (ip), vehicle: saline with Tween-80) was 88 % of control, the T/C (endpoint: median survival time, dose: 50.0 mg/kg/injection, schedule: Q04DX003 (ip), vehicle: saline with Tween-80) was 88 % of control and the T/C (endpoint: median survival time, dose: 100.0 mg/kg/injection, schedule: Q04DX003 (ip), vehicle: saline with Tween-80) was 88 % of control. For the same compound, the T/C (endpoint: median survival time, dose: 200.0 mg/kg/injection, schedule: Q04DX003 (ip), vehicle: saline with Tween-80) was 100 % of control.
In the case of `SCc1nc2ccccc2[nH]1`, the T/C [7] is reported as 96 % of control and the T/C [8] is reported as 97 % of control.
In the case of `Cc1cc(C(O)(C(=O)O)c2ccccc2)cc(C)c1C` (stereo not drawn), the T/C (endpoint: mean survival time, dose: 75.0 mg/kg/injection, schedule: Q01DX001 (ip), vehicle: other) is reported as 100 % of control, the T/C (endpoint: mean survival time, dose: 150.0 mg/kg/injection, schedule: Q01DX001 (ip), vehicle: other) is reported as 90 % of control and the T/C (endpoint: mean survival time, dose: 300.0 mg/kg/injection, schedule: Q01DX001 (ip), vehicle: other) is reported as 105 % of control.
In the case of `COc1ccc(F)c(NC(=O)/C=N/O)c1`, the T/C [4] is reported as 102 % of control, the T/C [5] is reported as 102 % of control and the T/C [6] is reported as 100 % of control.
`O=C(OCC1OC(OC2(COC(=O)c3ccccc3)OC(COC(=O)c3ccccc3)C(OC(=O)c3ccccc3)C2OC(=O)c2ccccc2)C(OC(=O)c2ccccc2)C(OC(=O)c2ccccc2)C1OC(=O)c1ccccc1)c1ccccc1` (stereo not drawn) was tested, and the T/C [7] was 100 % of control, the T/C [8] was 100 % of control and the T/C [9] was 102 % of control.
For `O=C(O)C1C2C=CC(O2)C1CO` (stereo not drawn), the T/C (endpoint: mean survival time, dose: 25.0 mg/kg/injection, schedule: Q04DX002 (ip), vehicle: saline) was 103 % of control, the T/C (endpoint: mean survival time, dose: 50.0 mg/kg/injection, schedule: Q04DX002 (ip), vehicle: saline) was 100 % of control and the T/C (endpoint: mean survival time, dose: 100.0 mg/kg/injection, schedule: Q04DX002 (ip), vehicle: saline) was 100 % of control.
For `CCOC(=O)c1cnc2c(ccc3ncccc32)c1NCCCN(CC)CC`, the T/C (endpoint: mean survival time, dose: 12.5 mg/kg/injection, schedule: Q01DX009 (ip), vehicle: Klucel (hydroxypropylcellulose) (HPC)) was 93 % of control, the T/C (endpoint: mean survival time, dose: 25.0 mg/kg/injection, schedule: Q01DX009 (ip), vehicle: Klucel (hydroxypropylcellulose) (HPC)) was 97 % of control and the T/C (endpoint: mean survival time, dose: 50.0 mg/kg/injection, schedule: Q01DX009 (ip), vehicle: Klucel (hydroxypropylcellulose) (HPC)) was 97 % of control.
In the case of `N#Cc1nn(C2OC(COC(=O)c3ccccc3)C(OC(=O)c3ccccc3)C2OC(=O)c2ccccc2)c2nc[nH]c(=O)c12` (stereo not drawn), the T/C (endpoint: median survival time, dose: 12.5 mg/kg/injection, schedule: Q01DX005 (ip), vehicle: saline with Tween-80) is reported as 107 % of control, the T/C (endpoint: median survival time, dose: 25.0 mg/kg/injection, schedule: Q01DX005 (ip), vehicle: saline with Tween-80) is reported as 103 % of control and the T/C (endpoint: median survival time, dose: 50.0 mg/kg/injection, schedule: Q01DX005 (ip), vehicle: saline with Tween-80) is reported as 97 % of control. For the same compound, the T/C (endpoint: median survival time, dose: 100.0 mg/kg/injection, schedule: Q01DX005 (ip), vehicle: saline with Tween-80) was 97 % of control and the T/C (endpoint: median survival time, dose: 200.0 mg/kg/injection, schedule: Q01DX005 (ip), vehicle: saline with Tween-80) was 119 % of control.
`Nc1ccc2c(c1)C(=O)c1ccc(N)cc1C2=O` was tested, and the T/C [7] was 88 % of control, the T/C [8] was 96 % of control and the T/C [9] was 88 % of control.
`C1=C(Nc2ccccc2)C(=Nc2ccccc2)C=C(Nc2ccccc2)C1=Nc1ccccc1` was tested, and the T/C [10] was 96 % of control, the T/C [11] was 96 % of control and the T/C [4] was 98 % of control.
In the case of `COc1cc(-c2ccc(N=Nc3ccc4c(S(=O)(=O)O)cc(S(=O)(=O)O)c(N)c4c3O)c(OC)c2)ccc1N=Nc1ccc2c(S(=O)(=O)O)cc(S(=O)(=O)O)c(N)c2c1O`, the T/C (endpoint: mean survival time, dose: 6.25 mg/kg/injection, schedule: Q01DX009 (ip), vehicle: saline) is reported as 100 % of control, the T/C (endpoint: mean survival time, dose: 12.5 mg/kg/injection, schedule: Q01DX009 (ip), vehicle: saline) is reported as 100 % of control and the T/C (endpoint: mean survival time, dose: 25.0 mg/kg/injection, schedule: Q01DX009 (ip), vehicle: saline) is reported as 105 % of control.
With `C=CCOc1ccncc1` the T/C (endpoint: mean survival time, dose: 12.5 mg/kg/injection, schedule: Q01DX009 (ip), vehicle: saline sonified) was 101 % of control, the T/C (endpoint: mean survival time, dose: 12.5 mg/kg/injection, schedule: Q04DX003 (ip), vehicle: saline with Tween-80) was 93 % of control and the T/C (endpoint: mean survival time, dose: 25.0 mg/kg/injection, schedule: Q01DX009 (ip), vehicle: saline sonified) was 100 % of control. The T/C [10] was 93 % of control, the T/C (endpoint: mean survival time, dose: 50.0 mg/kg/injection, schedule: Q01DX009 (ip), vehicle: saline sonified) was 101 % of control and the T/C [11] was 93 % of control.
For `CC1(C)C2CCC1(CS(=O)(=O)O)C(=O)C2.[Ag]` (stereo not drawn), the T/C (endpoint: mean survival time, dose: 100.0 mg/kg/injection, schedule: Q04DX003 (ip), vehicle: acetone) was 96 % of control.
`CCOC(=O)C1=C(C)/C(=C/c2[n-]c(C)c(C(=O)OCC)c2C)N=C1C.CCOC(=O)C1=C(C)/C(=C/c2[n-]c(C)c(C(=O)OCC)c2C)N=C1C.[Co+2]` was tested, and the T/C (endpoint: mean survival time, dose: 50.0 mg/kg/injection, schedule: Q01DX001 (ip), vehicle: saline with Tween-80) was 91 % of control, the T/C [8] was 87 % of control and the T/C [9] was 91 % of control.
In the case of `O=C(O)/C=C/C(=O)O`, the T/C [7] is reported as 93 % of control and 88 % of control, the T/C [4] is reported as 100 % of control and the T/C [8] is reported as 94 % of control. For the same compound, the T/C [9] was 91 % of control.
With `CC(O)C(=O)Oc1ccccc1` (stereo not drawn) the T/C (endpoint: mean survival time, dose: 50.0 mg/kg/injection, schedule: Q01DX009 (ip), vehicle: other) was 92 % of control, the T/C (endpoint: mean survival time, dose: 100.0 mg/kg/injection, schedule: Q01DX009 (ip), vehicle: other) was 100 % of control and the T/C (endpoint: mean survival time, dose: 200.0 mg/kg/injection, schedule: Q01DX009 (ip), vehicle: other) was 102 % of control.
In the case of `O=C(N/N=C/c1ccccc1Cl)c1ccccc1`, the T/C (endpoint: mean survival time, dose: 100.0 mg/kg/injection, schedule: Q01DX009 (ip), vehicle: Klucel (hydroxypropylcellulose) (HPC)) is reported as 103 % of control, the T/C (endpoint: mean survival time, dose: 200.0 mg/kg/injection, schedule: Q01DX009 (ip), vehicle: Klucel (hydroxypropylcellulose) (HPC)) is reported as 98 % of control and the T/C (endpoint: mean survival time, dose: 400.0 mg/kg/injection, schedule: Q01DX009 (ip), vehicle: Klucel (hydroxypropylcellulose) (HPC)) is reported as 107 % of control.
